This is an account of results in patent US11147272B2, “Pyridone compounds and agricultural and horticultural fungicides comprising the same as active ingredients” (MITSUI CHEMICALS AGRO, INC., priority 2017, dated 2021).

For assay [1], the system named is Colletotrichum orbiculare. The assay can be described thus: Test Example H: Anthracnose on cucumber. Conditions: Anthracnose on cucumber; 250 ppm spray, 6 to 10 days after inoculation.
Assay [2] has as its system Blumeria graminis f. sp. hordei. The assay can be described thus: Test Example D: Powdery mildew on barley. Conditions: Powdery mildew on barley; control value class.
In assay [3] the test system is Puccinia recondita. The assay can be described thus: Test Example E: Brown rust on wheat. The class given is in vivo. The note with it: Brown rust on wheat; control value class.
In assay [4] the test system is Magnaporthe grisea. The experiment in a line: whole plant or invertebrate. The class given is in vivo. The note with it: Blast on rice; control value class.
Assay [5] has as its system Plasmopara viticola. The experiment in a line: Test Example G: Downy mildew on vine. Conditions: Downy mildew on vine; 250 ppm spray, 7 to 10 days after inoculation.
Assay [6] has as its system Phytophthora infestans. The experiment in a line: whole plant or invertebrate. The class given is in vivo. Conditions: Late blight on tomato; control value class.
Assay [7] deals with Botrytis cinerea. The experiment in a line: Test Example B: Gray mold on tomato. The note with it: Gray mold on tomato; control value class.
Assay [8] deals with Alternaia brassicicola. The experiment in a line: Test Example C: Alternaria sooty spot on cabbage. The class given is in vivo. Conditions: Alternaria sooty spot on cabbage; control value class. From the text: Seeds of a test plant (cabbage variety: Shikidori) were planted and cultivated until the cotyledons extended.
<Control Value> Control value=100{1−(n/3)}

Regarding `C=Cc1cc(Cl)c(=O)n(CC)c1-c1ccc(F)cc1Cl` [compound 295], in assay [1], the “Test H control value” is listed as “L (50% or less control value)”. In addition, in assay [2], the “Test D control value” is given as “H (more than 50% control value)”. Besides, the “Test E control value” in assay [3] is given as “H (more than 50% control value)”. For the same molecule, the “Test A control value” in assay [4] is “L (50% or less control value)”. In addition, the “Test G control value” in assay [5] was “L (50% or less control value)”. Besides, the “Test F control value” in assay [6] was “H (more than 50% control value)”. Besides, the “Test B control value” in assay [7] was “H (more than 50% control value)”. Also, in assay [8], the “Test C control value” is “H (more than 50% control value)”.
In the case of `CC(C)CC1=C(c2c(F)cc(F)cc2F)N(CC(F)F)C(=O)CC1` [compound 296], the “Test H control value” in assay [1] is “L (50% or less control value)”. Besides, in assay [2], the “Test D control value” is on record as “L (50% or less control value)”. For the same molecule, in assay [3], the “Test E control value” is reported as “H (more than 50% control value)”. Also, in assay [4], the “Test A control value” is reported as “L (50% or less control value)”. Besides, in assay [5], the “Test G control value” is “L (50% or less control value)”. For the same molecule, the “Test F control value” in assay [6] was “L (50% or less control value)”. Moreover, in assay [7], the “Test B control value” is given as “L (50% or less control value)”. For the same molecule, the “Test C control value” in assay [8] was “H (more than 50% control value)”.
Turning to `CC(C)Cc1ccc(=O)n(CC(F)F)c1-c1c(F)cc(F)cc1F` [compound 297], in assay [1], the “Test H control value” is recorded as “L (50% or less control value)”. Also, in assay [2], the “Test D control value” is “H (more than 50% control value)”. Also, the “Test E control value” in assay [3] is listed as “H (more than 50% control value)”. The “Test A control value” in assay [4] was “L (50% or less control value)”. Moreover, the “Test G control value” in assay [5] is “H (more than 50% control value)”. In assay [6], the “Test F control value” was “L (50% or less control value)”. The “Test B control value” in assay [7] is reported as “H (more than 50% control value)”. Also, the “Test C control value” in assay [8] was “H (more than 50% control value)”.
In the case of `CCn1c(-c2ccc(F)cc2Cl)c(CC=O)cc(Cl)c1=O` [compound 298], the “Test H control value” in assay [1] is given as “H (more than 50% control value)”. Further, the “Test D control value” in assay [2] is recorded as “L (50% or less control value)”. Besides, in assay [3], the “Test E control value” is reported as “L (50% or less control value)”. In addition, in assay [4], the “Test A control value” is reported as “L (50% or less control value)”. The “Test G control value” in assay [5] was “L (50% or less control value)”. Moreover, the “Test F control value” in assay [6] is given as “L (50% or less control value)”. Besides, in assay [7], the “Test B control value” is listed as “L (50% or less control value)”. Further, the “Test C control value” in assay [8] is reported as “H (more than 50% control value)”.
In the case of `CC=Cc1cc(Cl)c(=O)n(CC)c1-c1ccc(F)cc1Cl` [compound 299], in assay [1], the “Test H control value” was “H (more than 50% control value)”. In assay [2], the “Test D control value” is “H (more than 50% control value)”. The “Test E control value” in assay [3] is “H (more than 50% control value)”. Further, in assay [4], the “Test A control value” is “L (50% or less control value)”. Moreover, the “Test G control value” in assay [5] is “H (more than 50% control value)”. Further, the “Test F control value” in assay [6] is “L (50% or less control value)”. Further, the “Test B control value” in assay [7] is “H (more than 50% control value)”. The “Test C control value” in assay [8] is “H (more than 50% control value)”.
For `CCn1c(-c2ccc(F)cc2Cl)c(C=C(Br)Br)cc(Cl)c1=O` [compound 301], the “Test H control value” in assay [1] was “H (more than 50% control value)”. Further, the “Test D control value” in assay [2] is “H (more than 50% control value)”. In addition, the “Test E control value” in assay [3] was “H (more than 50% control value)”. The “Test A control value” in assay [4] is reported as “H (more than 50% control value)”. For the same molecule, the “Test G control value” in assay [5] is “L (50% or less control value)”. Moreover, the “Test F control value” in assay [6] is given as “L (50% or less control value)”. The “Test B control value” in assay [7] was “H (more than 50% control value)”. Besides, the “Test C control value” in assay [8] was “H (more than 50% control value)”.
For the molecule `C#Cc1cc(Cl)c(=O)n(CC)c1-c1ccc(F)cc1Cl` [compound 302], the “Test H control value” in assay [1] is recorded as “H (more than 50% control value)”. Moreover, in assay [2], the “Test D control value” is on record as “L (50% or less control value)”. Moreover, in assay [3], the “Test E control value” is “H (more than 50% control value)”. For the same molecule, the “Test A control value” in assay [4] is “H (more than 50% control value)”. Also, the “Test G control value” in assay [5] is reported as “L (50% or less control value)”. The “Test F control value” in assay [6] is listed as “L (50% or less control value)”. The “Test B control value” in assay [7] was “H (more than 50% control value)”. For the same molecule, the “Test C control value” in assay [8] is “L (50% or less control value)”.
As to `C#Cc1cc(Cl)c(=O)n(CC)c1-c1c(F)cc(F)cc1F` [compound 303], the “Test H control value” in assay [1] is “H (more than 50% control value)”. For the same molecule, in assay [2], the “Test D control value” is on record as “H (more than 50% control value)”. In assay [3], the “Test E control value” is reported as “H (more than 50% control value)”. In assay [4], the “Test A control value” is “L (50% or less control value)”. In assay [5], the “Test G control value” is “L (50% or less control value)”. In assay [6], the “Test F control value” is “L (50% or less control value)”. For the same molecule, the “Test B control value” in assay [7] is given as “H (more than 50% control value)”. Further, the “Test C control value” in assay [8] is on record as “H (more than 50% control value)”.
Consider `CC(C)Cc1cc(Cl)c(=O)n(CC(F)F)c1-c1c(F)cc(F)cc1F` [compound 304], for which the “Test H control value” in assay [1] is “H (more than 50% control value)”. The “Test D control value” in assay [2] is “H (more than 50% control value)”. Also, the “Test E control value” in assay [3] is “H (more than 50% control value)”. The “Test A control value” in assay [4] was “H (more than 50% control value)”. Besides, in assay [5], the “Test G control value” is “L (50% or less control value)”. Further, the “Test F control value” in assay [6] is on record as “L (50% or less control value)”. Besides, the “Test B control value” in assay [7] is listed as “H (more than 50% control value)”. In assay [8], the “Test C control value” is “H (more than 50% control value)”.
In the case of `CC(C)Cc1cc(Br)c(=O)n(CC(F)F)c1-c1c(F)cc(F)cc1F` [compound 305], in assay [1], the “Test H control value” is listed as “H (more than 50% control value)”. For the same molecule, in assay [2], the “Test D control value” is on record as “H (more than 50% control value)”. Moreover, the “Test E control value” in assay [3] is “H (more than 50% control value)”. Moreover, the “Test A control value” in assay [4] is given as “H (more than 50% control value)”. In addition, the “Test G control value” in assay [5] is on record as “L (50% or less control value)”. Also, the “Test F control value” in assay [6] is reported as “L (50% or less control value)”. Moreover, in assay [7], the “Test B control value” was “H (more than 50% control value)”. Further, the “Test C control value” in assay [8] is recorded as “H (more than 50% control value)”.
As for `CCn1c(-c2c(F)cc(F)cc2F)c(CC(C)C)cc(C)c1=O` [compound 306], the “Test H control value” in assay [1] is listed as “H (more than 50% control value)”. Further, the “Test D control value” in assay [2] is “H (more than 50% control value)”. The “Test E control value” in assay [3] is reported as “H (more than 50% control value)”. Further, the “Test A control value” in assay [4] is “H (more than 50% control value)”. The “Test G control value” in assay [5] is on record as “H (more than 50% control value)”. Moreover, the “Test F control value” in assay [6] is “L (50% or less control value)”. The “Test B control value” in assay [7] is given as “H (more than 50% control value)”. For the same molecule, the “Test C control value” in assay [8] is listed as “H (more than 50% control value)”.
